The values that follow come from patent publication US20230277562A1, “USE OF C[…] THE TREATMENT OF SEIZURES ASSOCIATED WITH RARE […] SYNDROMES RELATED TO GENETIC ABNORMALITIES” (GW Research Limited, priority 2020, published 2023).

“Also recorded” adds a separate entry of the source.

In this test the test system is seizures associated with congenital disorder of glycosylation 1P (tonic and myoclonic seizures). Description: Open label, expanded-access program of botanically derived purified CBD: seizure frequency in a patient with congenital disorder of glycosylation 1P. The format is in vivo, human. The note with it: for Seizure frequency, Tonic: baseline 448.0; for Seizure frequency, Myoclonic: baseline 700.0. The protocol:
The subject was required to be on one or more AEDs at stable doses for a minimum of two weeks prior to baseline and to have stable vagus nerve stimulation (VNS) settings and ketogenic diet ratios for a minimum of four weeks prior to baseline.
Dose was then increased weekly by 5 mg/kg/day to a goal of 25 mg/kg/day.
A maximum dose of 50 mg/kg/day could be utilised for the patient if they were tolerating the medication but had not achieved seizure control; the patient had further weekly titration by 5 mg/kg/day.
Modifications were made to concomitant AEDs as per clinical indication.
Seizure frequency, intensity, and duration were recorded by caregivers in a diary during a baseline period of at least 28 days. Changes in seizure frequency relative to baseline were calculated after at least 2 weeks and at defined timepoints of treatment.
Patients may be defined as responders if they had more than 50% reduction in seizure frequency compared to baseline. The percent change in seizure frequency was calculated as follows: […]
The percent change of seizure frequency may be calculated for any time interval where seizure number has been recorded. For the purpose of this example the percent change of seizure frequency for the end of the treatment period was calculated as follows: […]

Where [1] appears, read: Patient 1, 2 weeks, dose CBD 9.1 mg/kg/day.
[2] abbreviates: Patient 1, 4 weeks, dose CBD 18.2 mg/kg/day.
Setting [3] is: Patient 1, 8 weeks, dose CBD 26.3 mg/kg/day.
Setting [4] is: Patient 1, 12 weeks, dose CBD 19.0 mg/kg/day.
Setting [5] is: Patient 1, 16 weeks, dose CBD 13.3 mg/kg/day.
The mark [6] stands for this setting: Patient 1, treated for 132 weeks, relative to baseline.

Turning to `C=C(C)[C@@H]1CCC(C)=C[C@H]1c1c(O)cc(CCCCC)cc1O` [CBD, cannabidiol], the “Seizure frequency, Tonic” value reads like this: under setting [1], 328.0; under setting [2], 231.2; under setting [3], 52.0; under setting [4], 22.8; under setting [5], 20.0. The “Seizure frequency, Myoclonic” value by setting is: under setting [1], 384.0; under setting [2], 424.8; under setting [3], 608.0; under setting [4], 986.0; under setting [5], 1251.2. The “reduction in myoclonic seizures over the treatment period” value under setting [6] is listed as 72.1%. Further, under setting [6], the “reduction in tonic seizures over the treatment period” value is 57.2%. The “effect on frequency/number of tonic and myoclonic seizures (in words)” value (patient with congenital disorder of glycosylation 1P) is “effective in reducing the frequency of tonic and myoclonic seizures; also recorded: significantly reduce the number of seizures; also recorded: significant reduction in tonic and myoclonic seizures”.
